Laboratory results taken from article PMC12767106, “In Situ Assembly of Transformable Monopeptide on Activated Neutrophils Attenuates NETs‐Induced Hepatocellular Carcinoma Metastasis by Disrupting NE Nuclear Translocation” (Advanced Science, 2025).

Tested on: subcutaneous Hepa1-6/luc tumors
Test: Immune profiling of tumors by flow cytometry, plasma cytokines by ELISA
Format: in vivo, mouse
Settings: tumor-bearing mice
Experimental: Submitted to Advanced Science
Total RNA was extracted and purified using a miRNeasy Mini Kit (FOREGENE, China). Quantitative real-time polymerase chain reaction (qRT-PCR) was performed in triplicate in the ABI 7500 fast real-time PCR System (Applied Biosystems, USA). The mRNAs were normalized with 18s. The following primers were used for PCR detection: E-cadherin, N-cadherin, Vimentin, and α-catenin.
Western blot analysis was performed to evaluate the levels of relative proteins in Hepa1-6/luc cells and Neutrophils.38 To evaluate NETs release, the neutrophils were exposed to PMA, PMA+NFTP -NPs, and PMA+FTP-NPs for 12 h. Following treatment, the cells underwent three PBS washes for WB to measure the expression of CitH3 proteins (Cat. no. ab5103, Abcam, Cambridge, England , UK). Furthermore, to evaluate EMT of Hepa1-6/luc cells, the cells underwent three PBS washes for WB to measure the expression of E - cadherin (Abmart, China), N-cadherin (Abmart, China), Vimentin (Abmart, China) , and β-catenin (Abmart, […]
In vivo subcutaneously implanted tumor models
The C57BL/6J mice with subcutaneous Hepa1-6/luc xenografts (grew up to roughly 100 mm 3) were separated into four groups according to the different treatments to perform the in vivo tumor therapy. PBS, NFTP-NPs, FTP-NPs, and NEi (300 µM in PBS: DMSO = 95:5, 200 µL) were administered intravenously (i.v.) five times every two days to mice. aPD-1 (BE0146, Bio X Cell, USA) was injected intraperitoneally into each mouse at 200μg once every 4 days for 3 doses. Throughout the experiment, the tumor volumes and body weight were measured once every four days. The formula tumor volume=length*1/2 width2 was used to get the tumor volume; at the same time, IVIS (AniView SE, Guangzhou Biolight Biotechnology Co., Ltd) was used to calculate bioluminescence signals in vivo. After therapy (day 20), major organs and blood samples were taken for histological and biochemical investigation as part of a safety assessment. […]
TNF-α, were measured using commercially available ELISA kits to assess the immune activation induced by […]

Substance: PpIX-GFFVLK-EAIPMSIPPEVK [FTP-NPs]
- plasma IL-6 level: significantly higher
- plasma IL-10 level: decreased
- plasma TNF-α level: significantly higher
